Data: patent publication US11827645B2, “Spiro-γ-Lactams, and preparation method and use thereof” (Chongqing University of Arts and Sciences, priority 2020, dated 2023)

Test system: human pancreatic cell lines PANC
Assay: MTT assay of cancer cell viability, PANC cells
Type: cell-based
Description: To evaluate potentials for developing a drug leading from the synthesized compounds, the MTT assay was used to measure cancer cell viability upon the drug treatment. Two cancer cell lines (PANC and U87) were selected, which are some of the representing solid tumor cell lines in the National Cancer Institute's 60 human tumor cell lines panel (see FIG. 1A).

IC50 (human pancreatic cell lines PANC): 92 nM
Structure (SMILES): Cc1cccc(C)c1N1C(=O)C2(C=CC(=O)N2c2ccc(CNC(=O)OC(C)(C)C)cc2)C2C(=O)c3ccccc3OC21 (centres unmarked) [Compound 6j, Tert-butyl (4-(1-(2,6-dimethylphenyl)-2,4,5′-trioxo-1,3a,4,9a-tetrahydro-2H-spiro[chromeno[2,3-b]pyrrole-3,2′-pyrrol]-1′(5′H)-yl)benzyl)carbamate]
anticancer activities (cancer cell viability, PANC): excellent anticancer activities
